Test results taken from patent publication US20240317721A1, “PYRAZOLYL DERIVATIVES AS INHIBITORS OF THE KRAS MUTANT PROTEIN” (NOVARTIS AG, priority 2021, published 2024).
pIC50: −log10 of the molar value.

Molecular target: KRasG12C (M1-K169, biotinylated on the N-terminus) (Homo sapiens (Human), UniProt P01116, G12C)
Test: Covalent competition assay: scintillation proximity assay (SPA) quantifying covalent modification of KRASG12C
Assay type: binding
Conditions: competition with radiolabeled covalent probe (Compound B/Compound A), 2 hours incubation, 10 nM KRasG12C
In short: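 Scintillation proximity readout after streptavidin bead capture (30 min) of biotinylated KRasG12C(M1-K169):GDP, 10 nM final, which was covalently labelled over 2 h by 25 nM radio-probe plus 475 nM cold probe unless blocked by compound.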

Q: `C=CC(=O)N1CC2(CC(n3nc(N4CC[C@@H](CN5CCN6CCOC[C@H]6C5)CC4(C)C)c(-c4c(Cl)c(Cl)cc5[nH]ncc45)c3C)C2)C1` (single isomer, unassigned) [Example 288b] was tested. Which pIC50 did it give?
A: 8.00

Q: `C=CC(=O)N1CC2(CC(n3nc(N4CC[C@@H](CN5CCN(C(=O)NC)CC5)CC4(C)C)c(-c4c(Cl)c(Cl)cc5[nH]ncc45)c3C)C2)C1` (single isomer, unassigned) [Example 289a] was tested. Which pIC50 did it give?
A: 5.48

Q: `C=CC(=O)N1CC2(CC(n3nc(N4CC[C@@H](CN5CCN(C(=O)NC)CC5)CC4(C)C)c(-c4c(Cl)c(Cl)cc5[nH]ncc45)c3C)C2)C1` (single isomer, unassigned) [Example 289b] was tested. Which pIC50 did it give?
A: 8.00

Q: How did the pIC50 turn out when `C=CC(=O)N1CC2(CC(n3nc(N4CC[C@@H](CN5CCN(C6COC6)C[C@@H]5CO)CC4(C)C)c(-c4c(Cl)c(Cl)cc5[nH]ncc45)c3C)C2)C1` (single isomer, unassigned) [Example 290a] was run?
A: 5.47

Q: How did the pIC50 turn out when `C=CC(=O)N1CC2(CC(n3nc(N4CC[C@@H](CN5CCN(C6COC6)C[C@@H]5CO)CC4(C)C)c(-c4c(Cl)c(Cl)cc5[nH]ncc45)c3C)C2)C1` (single isomer, unassigned) [Example 290b] was run?
A: > 8.30

Q: How did the pIC50 turn out when `C=CC(=O)N1CC2(CC(n3nc(N4CC[C@@H](CN5CC6(COCCN6C)C5)CC4(C)C)c(-c4c(Cl)c(Cl)cc5[nH]ncc45)c3C)C2)C1` (single isomer, unassigned) [Example 291a] was run?
A: < 5.30

Q: How did the pIC50 turn out when `C=CC(=O)N1CC2(CC(n3nc(N4CC[C@@H](CN5CC6(COCCN6C)C5)CC4(C)C)c(-c4c(Cl)c(Cl)cc5[nH]ncc45)c3C)C2)C1` (single isomer, unassigned) [Example 291b] was run?
A: 8.10

Q: How did the pIC50 turn out when `C=CC(=O)N1CC2(CC(n3nc(N4CC[C@@H](CN5CCOC[C@@H](O)C5)CC4(C)C)c(-c4c(Cl)c(Cl)cc5[nH]ncc45)c3C)C2)C1` (single isomer, unassigned) [Example 292a] was run?
A: 5.72

Q: `C=CC(=O)N1CC2(CC(n3nc(N4CC[C@@H](CN5CCOC[C@@H](O)C5)CC4(C)C)c(-c4c(Cl)c(Cl)cc5[nH]ncc45)c3C)C2)C1` (single isomer, unassigned) [Example 292b] was tested. Which pIC50 did it give?
A: 7.57

Q: With `C=CC(=O)N1CC2(CC(n3nc(N4CC[C@@H](CN5CC6(O)CC5C6)CC4(C)C)c(-c4c(Cl)c(Cl)cc5[nH]ncc45)c3C)C2)C1` (single isomer, unassigned) [Example 293a] as the compound, how does the pIC50 read?
A: 5.40

Q: With `C=CC(=O)N1CC2(CC(n3nc(N4CC[C@@H](CN5CC6(O)CC5C6)CC4(C)C)c(-c4c(Cl)c(Cl)cc5[nH]ncc45)c3C)C2)C1` (single isomer, unassigned) [Example 293b] as the compound, how does the pIC50 read?
A: 8.00

Q: `C=CC(=O)N1CC2(CC(n3nc(N4CC[C@@H](CN5C[C@@H]6CS(=O)(=O)C[C@@H]6C5)CC4(C)C)c(-c4c(Cl)c(Cl)cc5[nH]ncc45)c3C)C2)C1` (single isomer, unassigned) [Example 294a] was tested. Which pIC50 did it give?
A: 5.33

Q: How did the pIC50 turn out when `C=CC(=O)N1CC2(CC(n3nc(N4CC[C@@H](CN5C[C@@H]6CS(=O)(=O)C[C@@H]6C5)CC4(C)C)c(-c4c(Cl)c(Cl)cc5[nH]ncc45)c3C)C2)C1` (single isomer, unassigned) [Example 294b] was run?
A: 8.00

Q: How did the pIC50 turn out when `C=CC(=O)N1CC2(CC(n3nc(N4CC[C@@H](CN5C[C@@H]6CN(C(C)=O)C[C@@H]6C5)CC4(C)C)c(-c4c(Cl)c(Cl)cc5[nH]ncc45)c3C)C2)C1` (single isomer, unassigned) [Example 295a] was run?
A: 5.70

Q: `C=CC(=O)N1CC2(CC(n3nc(N4CC[C@@H](CN5C[C@@H]6CN(C(C)=O)C[C@@H]6C5)CC4(C)C)c(-c4c(Cl)c(Cl)cc5[nH]ncc45)c3C)C2)C1` (single isomer, unassigned) [Example 295b] was tested. Which pIC50 did it give?
A: 8.22

Q: `C=CC(=O)N1CC2(CC(n3nc(N4CC[C@@H](CN5CC6(C5)CN(C)C(=O)N6C)CC4(C)C)c(-c4c(Cl)c(Cl)cc5[nH]ncc45)c3C)C2)C1` (single isomer, unassigned) [Example 296a] was tested. Which pIC50 did it give?
A: 6.41

Q: `C=CC(=O)N1CC2(CC(n3nc(N4CC[C@@H](CN5CC6(C5)CN(C)C(=O)N6C)CC4(C)C)c(-c4c(Cl)c(Cl)cc5[nH]ncc45)c3C)C2)C1` (single isomer, unassigned) [Example 296b] was tested. Which pIC50 did it give?
A: 8.22

Q: How did the pIC50 turn out when `C=CC(=O)N1CC2(CC(n3nc(N4CC[C@@H](CN5CC6(CCN(S(C)(=O)=O)C6)C5)CC4(C)C)c(-c4c(Cl)c(Cl)cc5[nH]ncc45)c3C)C2)C1` (single isomer, unassigned) [Example 297a] was run?
A: < 5.30

Q: `C=CC(=O)N1CC2(CC(n3nc(N4CC[C@@H](CN5CC6(CCN(S(C)(=O)=O)C6)C5)CC4(C)C)c(-c4c(Cl)c(Cl)cc5[nH]ncc45)c3C)C2)C1` (single isomer, unassigned) [Example 297b] was tested. Which pIC50 did it give?
A: 8.05

Q: How did the pIC50 turn out when `C=CC(=O)N1CC2(CC(n3nc(N4CC[C@@H](CN5CCN(S(C)(=O)=O)CC5)CC4(C)C)c(-c4c(Cl)c(Cl)cc5[nH]ncc45)c3C)C2)C1` (single isomer, unassigned) [Example 298a] was run?
A: 6.00

Q: With `C=CC(=O)N1CC2(CC(n3nc(N4CC[C@@H](CN5CCN(S(C)(=O)=O)CC5)CC4(C)C)c(-c4c(Cl)c(Cl)cc5[nH]ncc45)c3C)C2)C1` (single isomer, unassigned) [Example 298b] as the compound, how does the pIC50 read?
A: 7.57

Q: How did the pIC50 turn out when `C=CC(=O)N1CC2(CC(n3nc(N4CC[C@@H](CN5CCOC6(COC6)C5)CC4(C)C)c(-c4c(Cl)c(C)cc5[nH]ncc45)c3C)C2)C1` (single isomer, unassigned) [Example 299a] was run?
A: 6.10

Q: With `C=CC(=O)N1CC2(CC(n3nc(N4CC[C@@H](CN5CCOC6(COC6)C5)CC4(C)C)c(-c4c(Cl)c(C)cc5[nH]ncc45)c3C)C2)C1` (single isomer, unassigned) [Example 299b] as the compound, how does the pIC50 read?
A: 7.64

Q: With `C=CC(=O)N1CC2(CC(n3nc(N4CC[C@@H](CN5C[C@H](O)C[C@@H](F)C5)CC4(C)C)c(-c4c(Cl)c(Cl)cc5[nH]ncc45)c3C)C2)C1` (single isomer, unassigned) [Example 300a, 1-(6-(4-(5,6-dichloro-1H-indazol-4-yl)-3-((R)-4-(((3R*,5R*)-3-fluoro-5-hydroxypiperidin-1-yl)methyl)-2,2-dimethylpiperidin-1-yl)-5-methyl-1H-pyrazol-1-yl)-2-azaspiro[3.3]heptan-2-yl)prop-2-en-1-one] as the compound, how does the pIC50 read?
A: < 5.30

Q: `C=CC(=O)N1CC2(CC(n3nc(N4CC[C@@H](CN5C[C@H](O)C[C@@H](F)C5)CC4(C)C)c(-c4c(Cl)c(Cl)cc5[nH]ncc45)c3C)C2)C1` (single isomer, unassigned) [Example 300b, 1-(6-(4-(5,6-dichloro-1H-indazol-4-yl)-3-((R)-4-(((3R*,5R*)-3-fluoro-5-hydroxypiperidin-1-yl)methyl)-2,2-dimethylpiperidin-1-yl)-5-methyl-1H-pyrazol-1-yl)-2-azaspiro[3.3]heptan-2-yl)prop-2-en-1-one] was tested. Which pIC50 did it give?
A: 7.89

Q: `C=CC(=O)N1CC2(CC(n3nc(N4CC[C@@H](CN5CC6CC(C5)N6C(C)=O)CC4(C)C)c(-c4c(Cl)c(Cl)cc5[nH]ncc45)c3C)C2)C1` (single isomer, unassigned) [Example 301a] was tested. Which pIC50 did it give?
A: 5.72

Q: With `C=CC(=O)N1CC2(CC(n3nc(N4CC[C@@H](CN5CC6CC(C5)N6C(C)=O)CC4(C)C)c(-c4c(Cl)c(Cl)cc5[nH]ncc45)c3C)C2)C1` (single isomer, unassigned) [Example 301b] as the compound, how does the pIC50 read?
A: > 8.30

Q: With `C=CC(=O)N1CC2(CC(n3nc(N4CC[C@@H](CN5CCOCC56COC6)CC4(C)C)c(-c4c(C)c(Cl)cc5[nH]ncc45)c3C)C2)C1` (single isomer, unassigned) [Example 302a] as the compound, how does the pIC50 read?
A: < 5.30

Q: How did the pIC50 turn out when `C=CC(=O)N1CC2(CC(n3nc(N4CC[C@@H](CN5CCOCC56COC6)CC4(C)C)c(-c4c(C)c(Cl)cc5[nH]ncc45)c3C)C2)C1` (single isomer, unassigned) [Example 302b] was run?
A: 8.00

Q: `C=CC(=O)N1CC2(CC(n3nc(N4CC[C@@H](CN5CCOC[C@@H]5CO)CC4(C)C)c(-c4c(Cl)c(Cl)cc5[nH]ncc45)c3C)C2)C1` (single isomer, unassigned) [Example 303a] was tested. Which pIC50 did it give?
A: 5.30

Q: `C=CC(=O)N1CC2(CC(n3nc(N4CC[C@@H](CN5CCOC[C@@H]5CO)CC4(C)C)c(-c4c(Cl)c(Cl)cc5[nH]ncc45)c3C)C2)C1` (single isomer, unassigned) [Example 303b] was tested. Which pIC50 did it give?
A: 8.30

Q: How did the pIC50 turn out when `C=CC(=O)N1CC2(CC(n3nc(N4CC[C@@H](CN(C)S(=O)(=O)N5CCN(C)CC5)CC4(C)C)c(-c4c(Cl)c(Cl)cc5[nH]ncc45)c3C)C2)C1` (single isomer, unassigned) [Example 304a] was run?
A: < 5.30

Q: `C=CC(=O)N1CC2(CC(n3nc(N4CC[C@@H](CN(C)S(=O)(=O)N5CCN(C)CC5)CC4(C)C)c(-c4c(Cl)c(Cl)cc5[nH]ncc45)c3C)C2)C1` (single isomer, unassigned) [Example 304b] was tested. Which pIC50 did it give?
A: 8.00

Q: `C=CC(=O)N1CC2(CC(n3nc(N4CC[C@@H](CN5CCC6COCC65)CC4(C)C)c(-c4c(C)c(Cl)cc5[nH]ncc45)c3C)C2)C1` (single isomer, unassigned) [Example 305a, 1-(6-(4-(6-chloro-5-methyl-1H-indazol-4-yl)-3-((R)-4-(((3aR*,6aR*)-hexahydro-1H-furo[3,4-b]pyrrol-1-yl)methyl)-2,2-dimethylpiperidin-1-yl)-5-methyl-1H-pyrazol-1-yl)-2-azaspiro[3.3]heptan-2-yl)prop-2-en-1-one] was tested. Which pIC50 did it give?
A: 5.60

Q: With `C=CC(=O)N1CC2(CC(n3nc(N4CC[C@@H](CN5CCC6COCC65)CC4(C)C)c(-c4c(C)c(Cl)cc5[nH]ncc45)c3C)C2)C1` (single isomer, unassigned) [Example 305b, 1-(6-(4-(6-chloro-5-methyl-1H-indazol-4-yl)-3-((R)-4-(((3aR*,6aR*)-hexahydro-1H-furo[3,4-b]pyrrol-1-yl)methyl)-2,2-dimethylpiperidin-1-yl)-5-methyl-1H-pyrazol-1-yl)-2-azaspiro[3.3]heptan-2-yl)prop-2-en-1-one] as the compound, how does the pIC50 read?
A: 7.72
